Test results published in PMC12079500, “An Intracellular Peptide Library Screening Platform Identifies Irreversible Covalent Transcription Factor Inhibitors” (Advanced Science, 2025).
*1 amine or outer side, *2 acyl side, *3 side chain or, on linkers, in order; H or OH if unused. Bridges are numbered along the chain shown (N, C = ends). [ ]: non-standard residue; d: D form. The star is where a group is joined. Met(S-mXyl) = C[S+](CC[C@H](N[*:1])C(=O)[*:2])Cc1cccc(C[*:3])c1; 5FAM = O=C1OC2(c3ccc(O)cc3Oc3cc(O)ccc32)c2ccc(C(=O)*)cc21

Columns and labels:
SK-MEL-28 cells [1] = assay: Cell imaging of FAM-peptide uptake; assay type: cell-based, human; conditions: SK-MEL-28, 10 and 30 µM, 6 h, 37 °C, fixed, DAPI counterstain, fluorescence microscopy
Procedure: Cell imaging: Cells were seeded at 40,000 cells per well in a […] and incubated for 24 hours before treatment with vehicle (1% DMSO in water) or peptide for 6 hours. The media was removed and the cells were washed 3x with PBS. 1 mL of paraformaldehyde (80 mg/mL in PBS) was added and incubated at room temperature for 10 minutes. The paraformaldehyde was removed and fixed cells were washed with 3x PBS. 500 µL of DAPI (1 µg/mL) was then added and incubated at room temperature for 5 minutes following by a 3x PBS wash. Cells were imaged using an Evos FL digital inverted fluorescence microscope using brightfield and both GFP (for the FAM label) and DAPI fluorescence filters.

SK-MEL-28 cells [2] = assay: MTT cell viability assay; assay type: cell-based, human; conditions: SK-MEL-28, 30 µM
Procedure: Cell viability assay: Cells were seeded at 15,000 cells per well in a 96-well plate and incubated for 24 hours before treatment with vehicle (1% DMSO in water) or peptide for 6 or 24 hours. The media was removed and the cells were washed twice with PBS before 50 µL of MTT (1 mg/mL in PBS, Merck) was added and incubated at 37°C for 30 minutes. The MTT solution was removed and 100 µL isopropanol was added to each well and rocked at room temperature for 5 minutes. Absorbance at 595 nm was measured using a Clariostar plate reader. Unless otherwise stated, all data are reported as an average of three independent biological experiments, with each data point determined in triplicate (i.e. 9 measurements) and reported as the mean with errors given as one standard deviation. For data with one independent measurement, each data point was determined in triplicate i.e. 3 measurements and reported as the mean with errors given as one standard deviation.

cJun = cJun (Homo sapiens, UniProt P05412); assay: Western blot of cJun levels in cell lysate after peptide addition; assay type: biochemical; set-up: endogenous in cells; host or cells: SK-MEL-28; conditions: SK-MEL-28 cell lysate with protease inhibitor cocktail, 30 µM peptide, 37 °C, 5 mM TCEP, pH 7.4, western blot over time
Procedure: Figure S25 – cJun protein levels in SK-MEL-28 cell lysate (with the addition of Roche cOmplete protease inhibitor cocktail) upon addition of 30 µM FAM-HW33-NLSTAT, determined over time by western blot. Cells were lysed by sonication in 20 mM KP, 150 mM NaCl, 5 mM TCEP, pH 7.4 and incubated at 37°C after peptide addition. Uncropped blots are also shown.

Sequence of cJun (P05412 whole entry): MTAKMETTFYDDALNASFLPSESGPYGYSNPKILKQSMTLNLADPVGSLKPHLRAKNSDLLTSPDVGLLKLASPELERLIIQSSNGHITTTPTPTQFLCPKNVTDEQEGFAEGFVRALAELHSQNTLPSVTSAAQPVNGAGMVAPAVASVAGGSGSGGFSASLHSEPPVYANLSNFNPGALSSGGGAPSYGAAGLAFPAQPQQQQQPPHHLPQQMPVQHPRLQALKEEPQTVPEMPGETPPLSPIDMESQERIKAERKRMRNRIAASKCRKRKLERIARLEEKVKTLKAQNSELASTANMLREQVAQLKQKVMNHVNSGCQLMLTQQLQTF

## 5FAM-E[Met(S-mXyl)]EELCVEEDVLEEEIEQLEERNYALRKEIKDLQDQPKKKRKVYGRKKRRQRRR-NH2 (thioether 2-6; lactam 31-35) [FAM-HW33-NLSTAT]
SK-MEL-28 cells [1]
  Cellular uptake (FAM fluorescence within cells): FAM fluorescence was observed within the cells
SK-MEL-28 cells [2]
  Fold larger reduction in cell viability relative to HW1: 2.2 x
cJun
  cJun depletion in cell lysate: cJun depletion effect was also observed in cell lysate
